What was measured:
Assay type in all cases: in vivo
[1] = system: Italian ryegrass (Lolium multiflorum); assay: Test B pre-/postemergence plant response; conditions: for Ryegrass, Italian plant response rating (0 to 100 scale): 62 g ai/ha, 0 is no effect, 13 to 15 days
Method in brief: (§1)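 Greenhouse herbicide screen. Pre- and postemergence (1- to 4-leaf) spray of compound in solvent/surfactant mixture; loam–sand soil for pre, peat/vermiculite medium for post. Visual control rating 0–100 at 13 to 15 days after treatment.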

[2] = system: ragweed (common ragweed, Ambrosia elatior); assay: Test B pre-/postemergence plant response; conditions: for Ragweed plant response rating (0 to 100 scale): 62 g ai/ha, 0 is no effect, 13 to 15 days
Method in brief: as §1

[3] = system: wheat (Triticum aestivum); assay: Test B pre-/postemergence plant response; conditions: for Wheat plant response rating (0 to 100 scale): 62 g ai/ha, 0 is no effect, 13 to 15 days
Method in brief: as §1

[4] = system: lambsquarters (Chenopodium album); assay: Test B pre-/postemergence plant response; conditions: for Lambsquarters plant response rating (0 to 100 scale): 62 g ai/ha, 0 is no effect, 13 to 15 days
Method in brief: as §1

[5] = system: bermudagrass (Cynodon dactylon); assay: Test B pre-/postemergence plant response; conditions: for Bermudagrass plant response rating (0 to 100 scale): 62 g ai/ha, 0 is no effect, 13 to 15 days
Method in brief: as §1

[6] = system: pigweed (Amaranthus retroflexus); assay: Test B pre-/postemergence plant response; conditions: for Pigweed plant response rating (0 to 100 scale): 62 g ai/ha, 0 is no effect, 13 to 15 days
Method in brief: as §1

[7] = system: windgrass (Apera spica-venti); assay: Test B postemergence plant response; conditions: for Windgrass plant response rating (0 to 100 scale): 62 g ai/ha, 0 is no effect, 13 to 15 days
Method in brief: (§2)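 Plants at the 1- to 4-leaf stage (2 to 18 cm tall), grown in pots of peat moss/vermiculite medium with wetting agent and starter nutrients, received postemergence applications of test chemicals. After 13 to 15 days in a greenhouse, injury was rated visually against untreated controls on a 0 (no effect) to 100 (complete control) scale.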

[8] = system: winter barley (Hordeum vulgare); assay: Test B postemergence plant response; conditions: for Barley plant response rating (0 to 100 scale): 62 g ai/ha, 0 is no effect, 13 to 15 days
Method in brief: as §2

[9] = system: canarygrass (Phalaris minor); assay: Test B postemergence plant response; conditions: for Canarygrass plant response rating (0 to 100 scale): 62 g ai/ha, 0 is no effect, 13 to 15 days
Method in brief: as §2

[10] = system: chickweed (Stellaria media); assay: Test B postemergence plant response; conditions: for Chickweed plant response rating (0 to 100 scale): 62 g ai/ha, 0 is no effect, 13 to 15 days
Method in brief: as §2

[11] = postemergence, 100 is complete control
[12] = Postemergence, 125 g ai/ha, scale 0 to 100 (0 no effect, 100 complete control)
[13] = Postemergence, 250 g ai/ha, scale 0 to 100 (0 no effect, 100 complete control)
[14] = 31 g ai/ha, postemergence, scale 0 to 100, 0 is no effect, 100 is complete control

Structure (SMILES): COCCn1c(-c2ccsc2)ncc(C(=O)C2=C(O)CCCC2=O)c1=O [Compound 97, 5-[(2-hydroxy-6-oxo-1-cyclohexen-1-yl)carbonyl]-3-(2-methoxyethyl)-2-(3-thienyl)-4(3H)-pyrimidinone]
- Ryegrass, Italian plant response rating (0 to 100 scale) [1, 11]: 0
- pest or weed control at 31 g/ha ([1]; Lolium multiflorum, post-emergence, 31 g ai/ha, postemergence, scale 0 to 100, 0 is no effect, 100 is complete control, read-out: Plant response rating, Ryegrass, Italian): 0%
- pest or weed control at 250 g/ha ([1]; Lolium multiflorum, post-emergence, Postemergence, 250 g ai/ha, scale 0 to 100 (0 no effect, 100 complete control), read-out: Plant response rating, Ryegrass, Italian): 5%
- Ragweed plant response rating (0 to 100 scale) [2, 11]: 98
- pest or weed control at 31 g/ha ([2]; Ambrosia artemisiifolia, post-emergence, 360 h, 31 g ai/ha, postemergence, scale 0 to 100, 0 is no effect, 100 is complete control, read-out: Plant response rating, Ragweed): 85%
- pest or weed control at 250 g/ha ([2]; Ambrosia artemisiifolia, post-emergence, 360 h, Postemergence, 250 g ai/ha, scale 0 to 100 (0 no effect, 100 complete control), read-out: Plant response rating, Ragweed): 100%
- Wheat plant response rating (0 to 100 scale) [3, 11]: 0
- plant injury at 31 g/ha ([3]; Triticum aestivum, post-emergence, 31 g ai/ha, postemergence, scale 0 to 100, 0 is no effect, 100 is complete control, read-out: Plant response rating, Wheat): 0%
- plant injury at 250 g/ha ([3]; Triticum aestivum, post-emergence, Postemergence, 250 g ai/ha, scale 0 to 100 (0 no effect, 100 complete control), read-out: Plant response rating, Wheat): 5%
- Lambsquarters plant response rating (0 to 100 scale) [4, 11]: 100
- pest or weed control at 31 g/ha ([4]; Chenopodium album, post-emergence, 31 g ai/ha, postemergence, scale 0 to 100, 0 is no effect, 100 is complete control, read-out: Plant response rating, Lambsquarters): 90%
- pest or weed control at 250 g/ha ([4]; Chenopodium album, post-emergence, Postemergence, 250 g ai/ha, scale 0 to 100 (0 no effect, 100 complete control), read-out: Plant response rating, Lambsquarters): 100%
- Bermudagrass plant response rating (0 to 100 scale) [5, 11]: 95
- pest or weed control at 31 g/ha ([5]; Cynodon dactylon, post-emergence, 31 g ai/ha, postemergence, scale 0 to 100, 0 is no effect, 100 is complete control, read-out: Plant response rating, Bermudagrass): 95%
- pest or weed control at 125 g/ha ([5]; Cynodon dactylon, post-emergence, Postemergence, 125 g ai/ha, visual rating after 13 to 15 days, scale 0 (no effect) to 100 (complete control)): 95%
- pest or weed control at 250 g/ha ([5]; Cynodon dactylon, post-emergence, Postemergence, 250 g ai/ha, scale 0 to 100 (0 no effect, 100 complete control), read-out: Plant response rating, Bermudagrass): 98%
- Pigweed plant response rating (0 to 100 scale) [6, 11]: 100
- pest or weed control at 31 g/ha ([6]; Amaranthus retroflexus, post-emergence, 31 g ai/ha, postemergence, scale 0 to 100, 0 is no effect, 100 is complete control, read-out: Plant response rating, Pigweed): 95%
- pest or weed control at 250 g/ha ([6]; Amaranthus retroflexus, post-emergence, Postemergence, 250 g ai/ha, scale 0 to 100 (0 no effect, 100 complete control), read-out: Plant response rating, Pigweed): 100%
- Windgrass plant response rating (0 to 100 scale) [7, 11]: 50
- pest or weed control at 31 g/ha ([7]; Apera spica-venti, post-emergence, 360 h, 31 g ai/ha, postemergence, scale 0 to 100, 0 is no effect, 100 is complete control, read-out: Plant response rating, Windgrass): 5%
- pest or weed control at 250 g/ha ([7]; Apera spica-venti, post-emergence, 360 h, Postemergence, 250 g ai/ha, scale 0 to 100 (0 no effect, 100 complete control), read-out: Plant response rating, Windgrass): 85%
- Barley plant response rating (0 to 100 scale) [8, 11]: 0
- plant injury at 31 g/ha ([8]; Hordeum vulgare, post-emergence, 31 g ai/ha, postemergence, scale 0 to 100, 0 is no effect, 100 is complete control, read-out: Plant response rating, Barley): 0%
- plant injury at 125 g/ha ([8]; Hordeum vulgare, post-emergence, Postemergence, 125 g ai/ha, visual rating after 13 to 15 days, scale 0 (no effect) to 100 (complete control)): 0%
- plant injury at 250 g/ha ([8]; Hordeum vulgare, post-emergence, Postemergence, 250 g ai/ha, scale 0 to 100 (0 no effect, 100 complete control), read-out: Plant response rating, Barley): 5%
- Canarygrass plant response rating (0 to 100 scale) [9, 11]: 10
- pest or weed control at 31 g/ha ([9]; Phalaris minor, post-emergence, 360 h, 31 g ai/ha, postemergence, scale 0 to 100, 0 is no effect, 100 is complete control, read-out: Plant response rating, Canarygrass): 0%
- pest or weed control at 125 g/ha ([9]; Phalaris minor, post-emergence, 360 h, Postemergence, 125 g ai/ha, visual rating after 13 to 15 days, scale 0 (no effect) to 100 (complete control)): 10%
- pest or weed control at 250 g/ha ([9]; Phalaris minor, post-emergence, 360 h, Postemergence, 250 g ai/ha, scale 0 to 100 (0 no effect, 100 complete control), read-out: Plant response rating, Canarygrass): 30%
- Chickweed plant response rating (0 to 100 scale) [10, 11]: 100
- pest or weed control at 31 g/ha ([10]; Stellaria media, post-emergence, 360 h, 31 g ai/ha, postemergence, scale 0 to 100, 0 is no effect, 100 is complete control, read-out: Plant response rating, Chickweed): 95%
- pest or weed control at 125 g/ha ([10]; Stellaria media, post-emergence, 360 h, Postemergence, 125 g ai/ha, visual rating after 13 to 15 days, scale 0 (no effect) to 100 (complete control)): 100%
- pest or weed control at 250 g/ha ([10]; Stellaria media, post-emergence, 360 h, Postemergence, 250 g ai/ha, scale 0 to 100 (0 no effect, 100 complete control), read-out: Plant response rating, Chickweed): 100%

Structure (SMILES): O=C1CCCC(O)=C1C(=O)c1cnc(-c2ccsc2)n(CC2CCCO2)c1=O (stereo not shown) [Compound 98]
- Ryegrass, Italian plant response rating (0 to 100 scale) [1, 11]: 5
- Plant response rating, Ryegrass, Italian [1, 12]: 15
- Plant response rating, Ryegrass, Italian [1, 13]: 15
- Ragweed plant response rating (0 to 100 scale) [2, 11]: 75
- Plant response rating, Ragweed [2, 12]: 80
- Plant response rating, Ragweed [2, 13]: 90
- Wheat plant response rating (0 to 100 scale) [3, 11]: 5
- Plant response rating, Wheat [3, 12]: 5
- Plant response rating, Wheat [3, 13]: 20
- Plant response rating, Lambsquarters [4, 14]: 95
- Lambsquarters plant response rating (0 to 100 scale) [4, 11]: 98
- Plant response rating, Lambsquarters [4, 12]: 100
- Plant response rating, Lambsquarters [4, 13]: 100
- Plant response rating, Bermudagrass [5, 14]: 75
- Bermudagrass plant response rating (0 to 100 scale) [5, 11]: 80
- Plant response rating, Bermudagrass [5, 12]: 85
- Plant response rating, Bermudagrass [5, 13]: 98
- Plant response rating, Pigweed [6, 14]: 100
- Pigweed plant response rating (0 to 100 scale) [6, 11]: 100
- Plant response rating, Pigweed [6, 12]: 100
- Plant response rating, Pigweed [6, 13]: 100
- Windgrass plant response rating (0 to 100 scale) [7, 11]: 20
- Plant response rating, Windgrass [7, 12]: 50
- Plant response rating, Windgrass [7, 13]: 70
- Plant response rating, Barley [8, 14]: 0
- Barley plant response rating (0 to 100 scale) [8, 11]: 5
- Plant response rating, Barley [8, 12]: 10
- Plant response rating, Barley [8, 13]: 15
- Plant response rating, Canarygrass [9, 14]: 5
- Canarygrass plant response rating (0 to 100 scale) [9, 11]: 20
- Plant response rating, Canarygrass [9, 12]: 35
- Plant response rating, Canarygrass [9, 13]: 50
- Plant response rating, Chickweed [10, 14]: 80
- Chickweed plant response rating (0 to 100 scale) [10, 11]: 80
- Plant response rating, Chickweed [10, 12]: 98
- Plant response rating, Chickweed [10, 13]: 100

Reference: patent publication US8952024B2, “Herbicidal pyrimidone derivatives” (E I du Pont de Nemours and Company, priority 2009, dated 2015)
